In the supplement of paper PMC10307832:

Key:
Test in all cases: relative viability (nuclei count vs DMSO), 5 days (fraction); higher = more cells survive
[1] = compound: C1=CC=C(C(=C1)C2=CC=C(C=C2)C3=CSC4=C3C(=C(C(=O)N4)C#N)O)O + CCNC(=O)c1noc(-c2cc(C(C)C)c(O)cc2O)c1-c1ccc(CN2CCOCC2)cc1 [Luminespib] (partner 0.01 µM)
Procedure, shortened: (§1)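 Nuclei were stained with Hoechst during a one-step fixation (final 0.05% Triton X-100, 1% formaldehyde, 1 ug/ml Hoechst) carried out 5 days after dosing, then counted on 4× images. The cells, lung cancer lines in 1536-well plates, had been dosed by pin tool the day after seeding with one drug alone or a fixed anchor-drug dose plus five library-drug doses (not always all listed) in √10 steps. Relative viability is the nuclei count in treated wells divided by that in vehicle wells, and each value is the median of duplicate plates.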

[2] = compound: CC1=CN2C(=O)C=C(N=C2C(=C1)C(C)NC3=CC=CC=C3)N4CCOCC4 [TGX 221] + Cc1cc(Nc2cc(N3CCN(C)CC3)nc(Sc3ccc(NC(=O)C4CC4)cc3)n2)n[nH]1 [Tozasertib] (partner 0.1 µM)
Procedure, shortened: as §1

[3] = compound: CC1=CN2C(=O)C=C(N=C2C(=C1)C(C)NC3=CC=CC=C3)N4CCOCC4 [TGX 221] + N=C(N)NC(=N)NCCc1ccccc1 [Phenformin] (partner 250 µM)
Procedure, shortened: as §1

[4] = compound: CC1=CN2C(=O)C=C(N=C2C(=C1)C(C)NC3=CC=CC=C3)N4CCOCC4 [TGX 221] + NC(=O)Nc1cc(-c2cccc(F)c2)sc1C(=O)N[C@H]1CCCNC1 [AZD7762] (partner 0.2 µM)
Procedure, shortened: as §1

Cell Line	relative viability ([1]; first compound 0.08 µM)	relative viability ([1]; first compound 0.253 µM)	relative viability ([1]; first compound 0.8 µM)	relative viability ([1]; first compound 2.53 µM)	relative viability ([1]; first compound 8 µM)	relative viability ([2]; first compound 0.08 µM)	relative viability ([2]; first compound 0.253 µM)	relative viability ([2]; first compound 0.8 µM)	relative viability ([2]; first compound 2.53 µM)	relative viability ([2]; first compound 8 µM)	relative viability ([3]; first compound 0.08 µM)	relative viability ([3]; first compound 0.253 µM)	relative viability ([3]; first compound 0.8 µM)	relative viability ([3]; first compound 2.53 µM)	relative viability ([3]; first compound 8 µM)	relative viability ([4]; first compound 0.08 µM)	relative viability ([4]; first compound 0.253 µM)	relative viability ([4]; first compound 0.8 µM)	relative viability ([4]; first compound 2.53 µM)	relative viability ([4]; first compound 8 µM)
LXF-289	0.764	0.651	0.8	0.73	0.632	0.215	0.235	0.201	0.202	0.114	0.496	0.479	0.546	0.458	0.538	1.12	1.12	1.06	1.03	1.08
NCI-H2085	0.403	0.475	0.479	0.499	0.416	0.792	0.729	0.598	0.541	0.427	0.817	0.562	0.588	0.462	0.425	0.96	0.769	0.583	0.37	0.397
NCI-H2342	0.742	0.816	0.788	0.718	0.68	0.422	0.484	0.6	0.547	0.447	0.445	0.57	0.583	0.559	0.601	0.421	0.448	0.496	0.489	0.524
EMC-BAC-2	0.953	1.25	1.25	1.26	1.18	0.255	0.318	0.296	0.307	0.275	0.528	0.508	0.506	0.499	0.519	1.06	1.05	1.13	1.07	0.992
NCI-H3122	0.106	0.0689	0.0946	0.105	0.0854	0.368	0.402	0.372	0.34	0.379	0.366	0.386	0.396	0.363	0.366	0.974	0.925	1.01	0.994	0.981
LC-2-ad	1.08	1.4	1.01	1.23	0.983	0.451	0.479	0.454	0.402	0.396	0.556	0.526	0.569	0.67	0.599	0.832	0.823	0.832	0.777	0.736
NCI-H1734	0.16	0.245	0.196	0.214	0.208	0.247	0.247	0.263	0.263	0.271	0.379	0.362	0.395	0.413	0.406	0.526	0.464	0.499	0.609	0.496
NCI-H1975	0.174	0.248	0.161	0.253	0.161	0.759	0.685	0.761	0.569	0.382	0.395	0.402	0.389	0.399	0.366	0.688	0.694	0.668	0.662	0.557
